Patent publication US9062124B2, “GIP-based mixed agonists for treatment of metabolic disorders and obesity” (priority 2008, dated 2015)
Where a SMILES comes first, the peptide text is derived from it. Bridges are numbered along the chain shown (N, C = ends).

What was measured:
Format in all cases: cell-based
[1] = molecular target: T1, GLP-1 receptor (Homo sapiens, UniProt P43220); test: cAMP synthesis functional assay (firefly luciferase reporter in HEK293 cells), GLP-1 receptor; settings: Table 1; for GLP-1 Receptor relative activity: relative to the native hormone of the indicated receptor
T1 construct: expressed in transfected cells; host or cells: HEK293

[2] = molecular target: T2, glucagon receptor (Homo sapiens, UniProt P47871); test: cAMP synthesis functional assay (firefly luciferase reporter in HEK293 cells), glucagon receptor; settings: Table 1; relative to the native hormone of the indicated receptor
T2 construct: expressed in transfected cells; host or cells: HEK293

[3] = molecular target: T3, GIP receptor (Homo sapiens, UniProt P48546); test: cAMP synthesis functional assay (firefly luciferase reporter in HEK293 cells), GIP receptor; settings: Table 1; relative to the native hormone of the indicated receptor
T3 construct: expressed in transfected cells; host or cells: HEK293
T3 sequence (P48546 22-466): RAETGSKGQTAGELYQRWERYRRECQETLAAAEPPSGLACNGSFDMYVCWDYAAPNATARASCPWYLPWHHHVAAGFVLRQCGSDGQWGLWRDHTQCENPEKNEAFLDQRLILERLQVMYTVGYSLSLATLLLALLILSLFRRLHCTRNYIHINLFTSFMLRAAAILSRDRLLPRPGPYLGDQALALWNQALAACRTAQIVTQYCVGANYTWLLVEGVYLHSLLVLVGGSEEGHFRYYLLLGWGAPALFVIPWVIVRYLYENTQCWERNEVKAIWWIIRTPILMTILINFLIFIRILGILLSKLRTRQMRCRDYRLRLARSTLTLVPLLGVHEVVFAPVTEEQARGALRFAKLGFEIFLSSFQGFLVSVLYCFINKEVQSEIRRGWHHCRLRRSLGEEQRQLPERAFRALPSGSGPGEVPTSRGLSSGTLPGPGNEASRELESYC

T1 sequence (P43220 24-463, species assumed): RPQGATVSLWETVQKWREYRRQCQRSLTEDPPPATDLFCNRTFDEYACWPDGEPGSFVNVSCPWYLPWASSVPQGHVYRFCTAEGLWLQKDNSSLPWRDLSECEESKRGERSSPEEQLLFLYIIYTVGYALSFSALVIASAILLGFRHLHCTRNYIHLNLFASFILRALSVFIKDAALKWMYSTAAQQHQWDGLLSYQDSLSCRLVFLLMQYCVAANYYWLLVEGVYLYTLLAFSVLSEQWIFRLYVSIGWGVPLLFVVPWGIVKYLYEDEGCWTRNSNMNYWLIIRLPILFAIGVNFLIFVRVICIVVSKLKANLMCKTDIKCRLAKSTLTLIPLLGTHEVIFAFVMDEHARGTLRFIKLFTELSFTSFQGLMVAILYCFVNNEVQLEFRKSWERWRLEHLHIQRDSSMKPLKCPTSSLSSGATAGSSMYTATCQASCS
T2 sequence (P47871 26-477): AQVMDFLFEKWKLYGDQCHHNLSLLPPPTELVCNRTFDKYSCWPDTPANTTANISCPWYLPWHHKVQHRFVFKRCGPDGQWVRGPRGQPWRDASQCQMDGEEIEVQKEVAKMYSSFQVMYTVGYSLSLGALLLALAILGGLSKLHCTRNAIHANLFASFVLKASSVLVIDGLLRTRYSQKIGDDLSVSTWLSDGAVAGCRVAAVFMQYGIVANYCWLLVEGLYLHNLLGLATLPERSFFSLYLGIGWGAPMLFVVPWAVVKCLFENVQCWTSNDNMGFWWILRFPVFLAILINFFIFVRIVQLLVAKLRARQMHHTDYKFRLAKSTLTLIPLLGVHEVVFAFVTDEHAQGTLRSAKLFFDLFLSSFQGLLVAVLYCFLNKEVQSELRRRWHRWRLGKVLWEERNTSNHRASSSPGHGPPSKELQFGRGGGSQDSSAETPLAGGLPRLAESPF

| SMILES | EC50 ([1]; GLP-1 Receptor EC50, nM) [nM] | GLP-1 Receptor relative activity [1] [%] | Glucagon Receptor relative activity [2] [%] | GIP Receptor relative activity [3] [%] |
| --- | --- | --- | --- | --- |
| CSCC[C@H](NC(=O)[C@H](Cc1ccc(O)cc1)NC(=O)[C@H](CCCCN)NC(=O)[C@H](CO)NC(=O)[C@H](Cc1ccc(O)cc1)NC(=O)[C@H](CC(=O)O)NC(=O)[C@H](CO)NC(=O)[C@@H](NC(=O)[C@H](Cc1ccccc1)NC(=O)[C@@H](NC(=O)CNC(=O)[C@H](CCC(N)=O)NC(=O)[C@H](CO)NC(=O)[C@@H](N)Cc1ccc(O)cc1)[C@@H](C)O)[C@@H](C)O)C(=O)N[C@@H](CC(=O)O)C(=O)N[C@H]1CCC(=O)NCCCC[C@@H](C(=O)N[C@@H](CCC(=O)O)C(=O)N[C@@H](Cc2ccccc2)C(=O)N[C@H](C(=O)N[C@@H](CC(N)=O)C(=O)N[C@@H](Cc2c[nH]c3ccccc23)C(=O)N[C@@H](CC(C)C)C(=O)N[C@@H](CC(C)C)C(=O)N[C@@H](C)C(=O)NCC(=O)NCC(=O)N2CCC[C@H]2C(=O)N[C@@H](CO)C(=O)N[C@@H](CO)C(=O)NCC(=O)N[C@@H](C)C(=O)N2CCC[C@H]2C(=O)N2CCC[C@H]2C(=O)N2CCC[C@H]2C(=O)N[C@@H](CO)C(N)=O)C(C)C)NC(=O)[C@H](C)NC(=O)[C@H](C)NC(=O)[C@H](CCC(N)=O)NC1=O [mt-141] (H-YSQGTFTSDYSKYMDEQAAKEFVNWLLAGGPSSGAPPPS-NH2; lactam 16-20; N-terminus assumed) | 0.16 | 36.78 | 269.33 | 10.04 |
| CC[C@H](C)[C@H](NC(=O)[C@H](CO)NC(=O)[C@H](Cc1ccc(O)cc1)NC(=O)[C@H](CC(=O)O)NC(=O)[C@H](CO)NC(=O)[C@@H](NC(=O)[C@H](Cc1ccccc1)NC(=O)[C@@H](NC(=O)CNC(=O)[C@H](CCC(=O)O)NC(=O)[C@H](C)NC(=O)[C@@H](N)Cc1ccc(O)cc1)[C@@H](C)O)[C@@H](C)O)C(=O)N[C@@H](Cc1ccc(O)cc1)C(=O)N[C@@H](CCSC)C(=O)N[C@@H](CC(=O)O)C(=O)N[C@H]1CCC(=O)NCCCC[C@@H](C(=O)N[C@@H](CC(=O)O)C(=O)N[C@@H](Cc2ccccc2)C(=O)N[C@H](C(=O)N[C@@H](CC(N)=O)C(=O)N[C@@H](Cc2c[nH]c3ccccc23)C(=O)N[C@@H](CC(C)C)C(=O)N[C@@H](CC(C)C)C(=O)N[C@@H](C)C(=O)N[C@@H](CCC(N)=O)C(N)=O)C(C)C)NC(=O)[C@H](CCC(N)=O)NC(=O)[C@H](Cc2c[nH]cn2)NC(=O)[C@H]([C@@H](C)CC)NC1=O [mt-98] (H-YAEGTFTSDYSIYMDEIHQKDFVNWLLAQ-NH2; lactam 16-20; N-terminus assumed) | – | 1.42 | 0.01 | 25.00 |
| CC[C@H](C)[C@H](NC(=O)[C@H](CO)NC(=O)[C@H](Cc1ccc(O)cc1)NC(=O)[C@H](CC(=O)O)NC(=O)[C@H](CO)NC(=O)[C@@H](NC(=O)[C@H](Cc1ccccc1)NC(=O)[C@@H](NC(=O)CNC(=O)[C@H](CCC(N)=O)NC(=O)[C@H](CO)NC(=O)[C@@H](N)Cc1ccc(O)cc1)[C@@H](C)O)[C@@H](C)O)C(=O)N[C@@H](Cc1ccc(O)cc1)C(=O)N[C@@H](CC(C)C)C(=O)N[C@@H](CC(=O)O)C(=O)N[C@@H](CCC(=O)O)C(=O)N[C@H]1CCC(=O)NCCCC[C@@H](C(=O)N[C@@H](CCC(=O)O)C(=O)N[C@@H](Cc2ccccc2)C(=O)N[C@H](C(=O)N[C@@H](CC(N)=O)C(=O)N[C@@H](Cc2c[nH]c3ccccc23)C(=O)N[C@@H](CC(C)C)C(=O)N[C@@H](CC(C)C)C(=O)N[C@@H](C)C(=O)NCC(=O)NCC(=O)N2CCC[C@H]2C(=O)N[C@@H](CO)C(=O)N[C@@H](CO)C(=O)NCC(=O)N[C@@H](C)C(=O)N2CCC[C@H]2C(=O)N2CCC[C@H]2C(=O)N2CCC[C@H]2C(=O)N[C@@H](CO)C(N)=O)C(C)C)NC(=O)[C@H](C)NC(=O)[C@H](C)NC1=O [mt-167] (H-YSQGTFTSDYSIYLDEEAAKEFVNWLLAGGPSSGAPPPS-NH2; lactam 17-20; N-terminus assumed) | – | 7.94 | 34.53 | 5.01 |
